Data: article PMC9963887, “Towards Radiolabeled EGFR-Specific Peptides: Alternatives to GE11” (Pharmaceuticals, 2023)

Test system: EGFR-positive A431 cells
Test: cell uptake / internalization studies on A431 cells
Assay type: cell-based, human
Details: 1 h incubation
Description: The cellular uptake was differentiated by membrane-bound and internalized activity. In these experiments, no EGFR-specific interaction of any of the radiolabeled agents [^68Ga]Ga-1–[^68Ga]Ga-11 was observed (Figure 5).
Internalization studies of [^68Ga]Ga-1–[^68Ga]Ga-11 on A431 cells. For this purpose, the A431 cells (10^6 per well) were seeded into 24-well cell culture multiwell plates (cellstar) and incubated for 2 days at 37 °C in a humidified CO2 (5%) atmosphere. Directly before the experiment, each well was washed twice with fresh internalization medium (PBS/DMEM, high glucose, 1/99, v/v), followed by the addition of internalization medium to a final volume of 1.35 mL per well. […] Afterwards, the medium was separated from the cells and each well was washed twice with 1 mL of ice-cold internalization medium, the washing solutions were added to the collected internalization medium and measured in a γ-counter (these combined solutions contain the unbound fraction). To determine the surface-bound fraction, each well was further incubated twice for 5 min with ice-cold glycine-buffer (pH 2.8, 0.05 M, 1 mL) and the supernatants were collected and measured. The internalized fraction was determined by lysing the cells twice for 5 min with sodium hydroxide solution (2 M, 1 mL), collection and measurement of the combined solutions. […]

Substance: [^125I]I-hEGF: ^125I-labeled hEGF from PerkinElmer, reference compound in cell uptake and competitor in displacement assays
- activity, internalized + bound to membrane, blocked (overall cellular uptake under blocking) (blocking with 100-fold excess hEGF): 1.9%
- activity, internalized + bound to membrane, unblocked (overall cellular uptake) (non-blocking conditions): 33.6%
